Data: patent publication US12459951B2, “Compounds that interact with RAS superfamily proteins for treatment of cancers, inflammatory diseases, rasopathies, and fibrotic disease” (SHY Therapeutics, LLC, priority 2022, dated 2025)

Key:
Test in all cases: Proliferation Assay (Cell Viability Assay)
Assay type in all cases: cell-based
[1] = test system: MM.1R (expressing wild type KRAS); settings: Homo sapiens, read-out: MM.1R IC50 (nM) Multiple Myloma
Experimental: (§1) Cell lines: these Human tumor-derived cell lines were purchased from American Type Culture Collection. Human tumor-derived pancreatic cancer cell line MiaPaca-2 (expressing KRAS G12C mutant) and Panc-1 (expressing KRas G12D mutant), and Human non-small cell lung cancer (NSCLC) cell line A549 (expressing KRas G12S mutant), and Human melanoma cell line A375 (wild type Kras) were grown in complete DMEM-High Glucose medium. Human tumor-derived pancreatic cancer cell lines SU86.86 (expressing KRas G12D mutant), BxPC3 (expressing wild type K-Ras), and Human non-small cell lung cancer (NSCLC) cell lines NCI-H441 (expressing KRas G12S mutant), NCI-H1975 (expressing wild type KRas), NCI-H358 (expressing KRas G12C mutant), NCI-H1299 (expressing NRas Q61H mutant), and Human colon cancer cell line SW-620 (expressing KRas G12V mutant), Human triple negative breast cancer cell line HCC-1806 (expressing wild type KRas), and Human tumor-derived multiple myeloma cell line MM.1R (expressing wild type KRAS), were grown in RPMI 1640 medium. Human tumor-derived breast cancer cell line BT-549 (expressing wild type KRAS) was grown in RPMI 1640 medium in the presence of 11.8U insulin. Human tumor-derived pancreatic cancer cell line HPAF-II (expressing KRas G12D mutant), Human triple negative breast cancer cell line BT-20 (expressing wild type KRas), and Human colon cancer cell line LS123 (expressing KRas G12S mutant), were grown in EMEM medium. Human tumor-derived pancreatic cancer cell line CF-PAC1 (expressing KRas G12V mutant) was frown in IMDM medium, and Human colon cancer cell line HT29 (expressing wild type KRas) was grown in McCoy's 5A medium. The colon cancer cell line GP2d (expressing KRas G12D mutant) was purchased from MilliporeSigma and grown in DMEM-High Glucose medium. All cell lines were supplemented with penicillin (100 U/mL), streptomycin (100 μg/mL), and 10% heat-inactivated FBS at 37° C. in a humidified incubator with 5% CO2.
(§2) Method: Cells were plated at 2000 to 5000 cells/well density in 96-wells plate and cultured overnight. Small molecules that were tested were added to the cells in the final concentration of 10 μM in the presence of 0.3% DMSO and 10% FBS, and incubated for 2-4 days at 37° C. in a humidified incubator with 5% CO2. For IC50 value determination, serial dilutions of compounds were added to cells under the same conditions.
(§3) Assay: At the end of the incubation period, cell viability was determined using the CellTiter 96® Aqueous One Solution Cell Proliferation Assay according to manufacturer specifications (Promega, Madison, WI). The percentage of small molecules inhibition of cellular proliferation was calculated from raw data.

[2] = test system: BT-549 (expressing wild type KRAS); settings: Homo sapiens, BT-549; Proliferation assay, BT549; read-out: BT549 IC50 (nM) TNBC
Experimental: as §1, §2, §3

A375 (wild type Kras) = settings: Homo sapiens, A-375; Proliferation assay, A375; read-out: A375 IC50 (nM) Melanoma
Experimental: as §1, §2, §3

[3] = test system: NCI-H358 (expressing KRas G12C mutant); settings: Homo sapiens; Proliferation assay, NCI-H358; read-out: NCI-H358 IC50 (nM) NSCLC
Experimental: as §1, §2, §3

[4] = test system: GP2d (expressing KRas G12D mutant); settings: Homo sapiens, Proliferation assay, read-out: GP2d IC50 (nM) Colorectal
Experimental: as §1, §2, §3

| IC50 [1] [nM] | IC50 [2] [nM] | IC50 (A375 (wild type Kras)) [nM] | IC50 [3] [nM] | SMILES | IC50 [4] [nM] |
| --- | --- | --- | --- | --- | --- |
| < 1 | > 50 | > 50 | 10 to 50 | Cc1c(-c2ccn(C)n2)cn2nc(-c3nccn3C)nc(Nc3cc4c(cn3)CCO4)c12 [Compound 221, N-(5-Methyl-2-(1-methyl-1H-imidazol-2-yl)-6-(1-methyl-1H-pyrazol-3-yl)pyrrolo[2,1-f][1,2,4]triazin-4-yl)-2,3-dihydrofuro[3,2-c]pyridin-6-amine] | > 50 |
| < 1 | 10 to 50 | > 50 | 10 to 50 | Cc1c(-c2ccn(C)n2)cn2nc(-c3nccn3C)nc(Nc3cc(N4CCOCC4)ccn3)c12 [Compound 222, 5-Methyl-2-(1-methyl-1H-imidazol-2-yl)-6-(1-methyl-1H-pyrazol-3-yl)-N-(4-morpholinopyridin-2-yl)pyrrolo[2,1-f][1,2,4]triazin-4-amine] | > 50 |
| < 1 | 10 to 50 | > 50 | > 50 | COc1cc(Nc2nc(-c3nccn3C)nn3cc(-c4ccn(C)n4)c(C)c23)ncc1C [Compound 235, N-(4-Methoxy-5-methylpyridin-2-yl)-5-methyl-2-(1-methyl-1H-imidazol-2-yl)-6-(1-methyl-1H-pyrazol-3-yl)pyrrolo[2,1-f][1,2,4]triazin-4-amine] | > 50 |
| < 1 | 10 to 50 | > 50 | > 50 | COc1cc(Nc2nc(-c3nccn3C)nn3cc(-c4ccn(C)n4)c(C)c23)ncc1C1CC1 [Compound 238, N-(5-Cyclopropyl-4-methoxypyridin-2-yl)-5-methyl-2-(1-methyl-1H-imidazol-2-yl)-6-(1-methyl-1H-pyrazol-3-yl)pyrrolo[2,1-f][1,2,4]triazin-4-amine] | > 50 |
